The text below walks through data of PubChem BioAssay AID977614 (Broad Institute, 2014).

Broadly, the AC50 is the concentration at which the activity in the assay is half-maximal.

The test system of the assay is L. donovani amastigotes in THP-1 macrophages, DAPI imaging, 72 h. Put plainly: antileishmanial activity in infected macrophages – imaging, THP-1 host macrophages, single concentration (AID 977614).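 Also: signal is the parasite per host cell ratio from DAPI stained kinetoplasts and nuclei.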

Active and inactive are the calls of the source.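 The calls were made as follows: active = parasite count per well reduced by over 3 SD from the mean, with host cell number above 80% of untreated; inactive = the rest.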

Take `Cc1cccc(S(=O)(=O)N2C[C@@H]3[C@H](c4ccccc42)[C@@H](CO)N3CC2CCCC2)c1`: the AC50 is > 10 µM (inactive). The figure for `O=S(=O)(c1ccc(F)cc1)N1C[C@H]2[C@@H](c3ccccc31)[C@@H](CO)N2Cc1ccccc1Cl` is > 10 µM (inactive). The figure for `C[C@H](CO)N1C[C@H](C)[C@@H](CN(C)C(=O)NC2CCCC2)OCc2cnnn2CCCC1=O` is > 10 µM (inactive).

`C[C@@H]1CN([C@H](C)CO)C(=O)CCCn2cc(nn2)CO[C@H]1CN(C)C(=O)CCC(F)(F)F`: the AC50 is > 10 µM (inactive).

For the compound `C[C@@H]1CN([C@@H](C)CO)C(=O)CCCn2cc(nn2)CO[C@@H]1CN(C)C(=O)Oc1ccc2ccccc2c1`, the AC50 was > 10 µM (inactive).

As for `Cc1noc(C)c1S(=O)(=O)N(C)C[C@H]1OCc2cn(nn2)CCCC(=O)N([C@@H](C)CO)C[C@H]1C`, the AC50 was > 10 µM (inactive). The figure for `COc1ccccc1CN1[C@H](CO)[C@H]2c3ccccc3N(C(=O)c3cccnc3)C[C@H]21` is > 10 µM (inactive). The figure for `C[C@@H]1CN([C@H](C)CO)C(=O)CCCn2nncc2CO[C@@H]1CN(C)C(=O)c1ccc2ccn(C)c2c1` is > 10 µM (inactive); for `Cc1cccc(S(=O)(=O)N2C[C@H]3[C@@H](c4ccccc42)[C@H](CO)N3Cc2ccc3c(c2)OCO3)c1` it is > 10 µM (inactive).

Consider `COc1ccccc1CN1[C@@H](CO)[C@@H]2c3ccccc3N(C(=O)C3CCOCC3)C[C@@H]21`, for which the AC50 was > 10 µM (inactive). The figure for `CN1C[C@H]2[C@@H](c3ccccc31)[C@@H](CO)N2S(=O)(=O)c1ccccc1` is > 10 µM (inactive); for `COCC(=O)N1[C@H](CNC(=O)c2ccccn2)[C@H](c2ccccc2)[C@@H]1CO` it is > 10 µM (inactive); for `Cc1noc(C)c1NC(=O)N(C)C[C@@H]1OCc2cn(nn2)CCCC(=O)N([C@H](C)CO)C[C@H]1C` it is > 10 µM (inactive). As for `O=C(Nc1ccccc1Cl)N1C[C@@H]2[C@H](c3ccccc31)[C@@H](CO)N2Cc1ccncc1`, the AC50 was > 10 µM (inactive). The figure for `CNC[C@@H]1OCc2cnnn2CCCC(=O)N([C@H](C)CO)C[C@@H]1C` is > 10 µM (inactive); for `CCN(C[C@@H]1[C@@H](c2ccc(-c3cccnc3)cc2)[C@H](CO)N1C(C)=O)C(C)=O` it is > 10 µM (inactive); for `COc1ccccc1CN1[C@H](CO)[C@@H]2c3ccccc3N(C(=O)C3CCOCC3)C[C@@H]21` it is > 10 µM (inactive).

Consider `O=S(=O)(c1ccc(F)cc1)N1C[C@H]2[C@@H](c3ccccc31)[C@H](CO)N2Cc1ccccc1Cl`, for which the AC50 is > 10 µM (inactive).

In the case of `COc1ccc(NC(=O)N2C[C@H]3[C@@H](c4ccccc42)[C@H](CO)N3Cc2ccccn2)cc1`, the AC50 is > 10 µM (inactive). Take `CCN(C[C@H]1[C@H](c2ccccc2)[C@H](CO)N1CC1CC1)C(=O)c1ccccn1`: the AC50 was > 10 µM (inactive). The figure for `CN(C[C@H]1[C@@H](c2ccccc2)[C@@H](CO)N1C(=O)C1CCC1)C(=O)c1ccncc1` is > 10 µM (inactive). For the compound `C[C@H](CO)N1C[C@H](C)[C@@H](CN(C)C(=O)NC2CCCCC2)OCc2cn(nn2)CCCC1=O`, the AC50 was > 10 µM (inactive). Regarding `C/C=C/c1ccc([C@@H]2[C@H](CO)N[C@H]2CN(C(=O)c2ccccc2F)C(C)C)cc1`, the AC50 was > 10 µM (inactive). For the compound `COc1ccccc1C(=O)N1C[C@H]2[C@@H](c3ccccc31)[C@@H](CO)N2C(=O)Cc1ccccc1`, the AC50 was > 10 µM (inactive). The figure for `C[C@@H]1CN([C@H](C)CO)C(=O)CCCn2cc(nn2)CO[C@H]1CN(C)Cc1ccccc1` is > 10 µM (inactive); for `C[C@@H]1CN([C@@H](C)CO)C(=O)CCCn2nncc2CO[C@@H]1CN(C)C(=O)Oc1cccc2ccccc12` it is > 10 µM (inactive). The figure for `CCN(C[C@@H]1[C@@H](c2ccccc2)[C@H](CO)N1C(C)=O)C(=O)NC1CCCC1` is > 10 µM (inactive); for `CCC(=O)N1C[C@@H]2[C@H](c3ccccc31)[C@H](CO)N2Cc1ccc(F)cc1` it is > 10 µM (inactive). The figure for `C[C@H]1CN([C@@H](C)CO)C(=O)CCCn2nncc2CO[C@H]1CN(C)S(=O)(=O)c1ccc2c(c1)OCCCO2` is > 10 µM (inactive); for `COc1ccc(CN(C)C[C@H]2OCc3cnnn3CCCC(=O)N([C@H](C)CO)C[C@H]2C)cc1` it is > 10 µM (inactive). With `C[C@H](CO)N1C[C@H](C)[C@@H](CN(C)C(=O)Nc2cccc(C(F)(F)F)c2)OCc2cn(nn2)CCCC1=O`, the AC50 was > 10 µM (inactive).

Turning to `C[C@H](CO)N1C[C@H](C)[C@H](CN(C)Cc2ccc3cccnc3c2)OCc2cnnn2CCCC1=O`, the AC50 is > 10 µM (inactive). The figure for `C[C@H]1CN([C@@H](C)CO)C(=O)CCCn2cc(nn2)CO[C@H]1CN(C)S(=O)(=O)c1cccc(C#N)c1` is > 10 µM (inactive); for `Cc1noc(C)c1NC(=O)N(C)C[C@H]1OCc2cnnn2CCCC(=O)N([C@H](C)CO)C[C@@H]1C` it is > 10 µM (inactive); for `O=C(c1ccncc1)N1C[C@@H]2[C@H](c3ccccc31)[C@@H](CO)N2Cc1ccccc1F` it is > 10 µM (inactive). Take `CC(=O)NC[C@H]1[C@@H](c2ccc(C#Cc3ccccc3F)cc2)[C@@H](CO)N1C(C)=O`: the AC50 is > 10 µM (inactive).

With `O=C(c1ccncc1)N1C[C@H]2[C@@H](c3ccccc31)[C@@H](CO)N2Cc1ccccc1F`, the AC50 was > 10 µM (inactive). The figure for `C[C@H](CO)N1C[C@H](C)[C@@H](CN(C)C(=O)c2ccc(N3CCN(C)CC3)cc2)OCc2cn(nn2)CCCC1=O` is > 10 µM (inactive). The figure for `COCC(=O)N1[C@H](CO)[C@@H]2c3ccccc3N(C(=O)Nc3ccccc3Cl)C[C@@H]21` is > 10 µM (inactive). `C[C@@H]1CN([C@@H](C)CO)C(=O)CCCn2nncc2CO[C@@H]1CN(C)S(=O)(=O)c1ccc2c(c1)OCCCO2`: the AC50 was > 10 µM (inactive). The figure for `O=C(Cc1ccccn1)N1[C@@H]2CNc3ccccc3[C@@H]2[C@@H]1CO` is > 10 µM (inactive). The figure for `COCC(=O)N1[C@@H]2CN(C(=O)c3cccnc3)c3ccccc3[C@@H]2[C@@H]1CO` is > 10 µM (inactive); for `C[C@@H]1CN([C@H](C)CO)C(=O)CCCn2nncc2CO[C@@H]1CN(C)C(=O)Nc1ccnc(N2CCOCC2)c1` it is > 10 µM (inactive). The figure for `C[C@H]1CN([C@@H](C)CO)C(=O)CCCn2nncc2CO[C@@H]1CN(C)Cc1cccc2c1OCCCO2` is > 10 µM (inactive); for `CCN(C[C@H]1[C@H](c2ccccc2)[C@@H](CO)N1C(C)=O)C(=O)NC1CCCC1` it is > 10 µM (inactive). With `O=C(Cc1ccccc1)NC[C@H]1N[C@H](CO)[C@@H]1c1ccc(C2=CCCC2)cc1`, the AC50 was > 10 µM (inactive). `C[C@@H]1CN([C@H](C)CO)C(=O)CCCn2nncc2CO[C@H]1CN(C)S(=O)(=O)c1ccccc1C#N`: the AC50 was > 10 µM (inactive). The figure for `COc1ccc(NC(=O)N(C)C[C@H]2OCc3cnnn3CCCC(=O)N([C@@H](C)CO)C[C@@H]2C)c(OC)c1` is > 10 µM (inactive). The figure for `CC(=O)N1[C@@H](CO)[C@H](c2ccccc2)[C@@H]1CN(CC1CCC1)C(=O)CN(C)C` is > 10 µM (inactive). The figure for `C[C@@H]1CN([C@H](C)CO)C(=O)CCCn2nncc2CO[C@H]1CN(C)C(=O)Nc1ccc2c(c1)OCCO2` is > 10 µM (inactive); for `CCC(=O)N1[C@H](CO)[C@H]2c3ccccc3N(C(=O)c3cnccn3)C[C@H]21` it is > 10 µM (inactive); for `C/C=C/c1ccc([C@H]2[C@@H](CO)N(C(C)=O)[C@H]2CNC(=O)c2ccccc2)cc1` it is > 10 µM (inactive). For `CC(=O)NC[C@@H]1[C@@H](c2ccc(C3=CCCC3)cc2)[C@H](CO)N1Cc1cccnc1`, the AC50 is > 10 µM (inactive). The figure for `CCC(=O)N1[C@@H](CO)[C@@H](c2ccccc2)[C@@H]1CN(CC)C(=O)c1cccc(F)c1` is > 10 µM (inactive); for `CNC[C@@H]1OCc2cnnn2CCCC(=O)N([C@@H](C)CO)C[C@@H]1C` it is > 10 µM (inactive). The figure for `COCCNC[C@H]1[C@H](c2ccccc2)[C@H](CO)N1c1nc(C)c(C)s1` is > 10 µM (inactive).

As for `C[C@@H]1CN([C@@H](C)CO)C(=O)CCCn2nncc2CO[C@@H]1CN(C)S(=O)(=O)c1ccccc1C#N`, the AC50 is > 10 µM (inactive). The figure for `COc1ccccc1NC(=O)N1C[C@H]2[C@@H](c3ccccc31)[C@H](CO)N2Cc1ccc2c(c1)OCO2` is > 10 µM (inactive); for `COc1ccc(-c2ccc([C@@H]3[C@H](CN(C)S(C)(=O)=O)N[C@@H]3CO)cc2)cc1` it is > 10 µM (inactive); for `O=C(c1ccccn1)N1C[C@H]2[C@@H](c3ccccc31)[C@@H](CO)N2C(=O)C1CCCCC1` it is > 10 µM (inactive). The figure for `C/C=C/c1ccc([C@H]2[C@H](CO)N[C@H]2CN(CC(C)C)C(=O)c2ccccn2)cc1` is > 10 µM (inactive); for `COCCNC[C@H]1[C@@H](c2ccccc2)[C@@H](CO)N1c1nc(C)c(C)s1` it is > 10 µM (inactive). The figure for `CN(C[C@@H]1[C@@H](c2ccccc2)[C@H](CO)N1Cc1ccccn1)S(C)(=O)=O` is > 10 µM (inactive). On to `COCC(=O)N1[C@@H](CO)[C@@H]2c3ccccc3N(C)C[C@@H]21`, for which the AC50 was > 10 µM (inactive). The figure for `O=C(c1ccccc1F)N1C[C@H]2[C@@H](c3ccccc31)[C@H](CO)N2C(=O)Nc1ccccc1` is > 10 µM (inactive). The figure for `O=S(=O)(NC[C@@H]1[C@@H](c2ccccc2)[C@@H](CO)N1CC1CC1)c1ccccc1` is > 10 µM (inactive); for `O=C(C1CCC1)N1C[C@H]2[C@@H](c3ccccc31)[C@@H](CO)N2Cc1ccccc1` it is > 10 µM (inactive).

With `C[C@H](CO)N1C[C@H](C)[C@@H](CN(C)C(=O)c2cc(-c3ccccc3)on2)OCc2cnnn2CCCC1=O`, the AC50 is > 10 µM (inactive). The figure for `C[C@H](CO)N1C[C@H](C)[C@@H](CN(C)Cc2ccc3cccnc3c2)OCc2cnnn2CCCC1=O` is > 10 µM (inactive).
